Values quoted from earlier work, collected in patent publication US20230405018A1, “FLUMAZENIL FORMULATIONS FOR SUBCUTANEOUS INJECTION AND METHODS OF TREATMENT USING GABA RECEPTOR MODULATORS” (Bexson Biomedical, Inc., priority 2020, published 2023).
Like-named read-outs stand apart in the source and are kept apart here.

How the values were obtained:
[1] = acidic USP flumazenil preparations (pH ~4)
[2] = tested on: benzodiazepine withdrawal symptoms
[3] = reported

Row | Solubility / concentration of flumazenil in USP preparations [1] | Systemic availability after first pass hepatic metabolism (in vivo) | Oral bioavailability (in vivo, po) | Half-life (rapid metabolism in the liver) | Solubility of SBE-β-CD [3] | Compound | Effect on withdrawal, craving and cessation ([2]; bolus administrations in conjunction with benzodiazepine tapering) | Effect on withdrawal symptoms ([2]; continuous 2 mg/24 h over 96 h by IV with oxazepam tapering) | Effect on withdrawal symptoms ([2]; ~1-2 mg bolus over several hours, high dose benzodiazepine patients abstinent at least three weeks)
1 | ~0.1 mg/mL | less than 25% | extremely limited and poor | 4 to 11 min |  | CCOC(=O)c1ncn2c1CN(C)C(=O)c1cc(F)ccc1-2 [flumazenil, ethyl 8-fluoro-5,6-dihydro-5-methyl-6-oxo-4H-imidazo[1,5-a][1,4] benzodiazepine-3-carboxylate] | reduction of benzodiazepine withdrawal symptoms, reduced craving, and increased completion of cessation of benzodiazepines without relapse | drastically curtail withdrawal symptoms | reduce withdrawal symptoms
2 |  |  |  |  | 600 mg/mL | sulfobutyl-ether-beta-cyclodextrin [SBE-β-CD] |  |  | 
